Measured values reported in EP4506003A1, “HALOGEN DERIVATIVES OF (4´,5´- METHYLENEDIOXYPHENYL)-6,7-DIMETHOXY-1,2,3,4-TETRAHYDROISOQUINOLINE FOR USE IN THE TREATMENT OF LEUKEMIA” (S.Yu Yunusov Institute of Chemistry of Plant Substances of …, priority 2023, dated 2025).
Marks after values point to notes of the source that are not given here.

Tests used:
cervical carcinoma cells = details: read-out: CE50 dose; cited from earlier work
[1] = tested on: blood of patients with leukemia (combined group); assay: Hemogram of blood of patients with leukemia (combined group) after exposure; type: cell-based
Text: (§3) The effect of compounds F1 and F2 was studied on biological material (blood) of patients with hematological malignancies (leukemia), as well as for individual nosologies, in particular, patients with leukemia (combined group) (n=224), T-ALL (n=84), B-ALL (n=100), ALL (n=100), AML (n= 98), AML (n=94) and AML (n= 98) were studied. A total of 798 blood samples from patients with leukemia were examined.
(§4) The drugs Cytosar (Alexan) (Ebewe Pharma, Austria) and doxorubicin (Naprod, Mumbai, India) recommended by WHO for the treatment of the above oncohematological diseases were used as comparison drugs.
(§5) 5 ml of venous blood from sick and conditionally healthy individuals were collected into Vacutainer tubes with the addition of EDTA (Himedia, India).
(§6) The resulting blood was divided into aliquots of 1 ml and 10 µl (10 µg/ml) of the studied drugs (cytosar, doxorubicin, F1 and F2) were added to each tube.

fibroblasts = assay: MTT cytotoxicity on fibroblasts; type: cell-based; details: Fibroblast, 24 hours
Procedure: (§1) The cytotoxic properties of the compounds were determined in vitro using the MTT method in 96-well plates (Costar, USA). […] Rat liver hepatocytes were obtained according to the method, human blood mononuclear cells - according to [23]. Fibroblast cells were obtained according to the method of [24] with some modifications. Cell cultures were subcultured into 96-well plates according to the method of [21] by adding 100 μl of nutrient medium. The CCRF-CEM suspension culture was poured into a tube, centrifuged at 800 rpm for 10 minutes, and the supernatant was discarded. […] Data obtained in 3 independent experiments were expressed as the mean value for each concentration ± standard error of the mean, relative to the control values (cells without test compounds). The cytotoxic effect of each of the studied compounds was compared with the effect of the cytostatic Cisplatin-Naprod (India), containing cisplatin as an active component. Table 1: IC50 μM value for test compounds

Rat liver hepatocytes = assay: MTT cytotoxicity on hepatocytes; type: cell-based; details: Rattus norvegicus, Hepatocyte, 24 hours
Procedure: as §1

[2] = tested on: blood of patients with AML; assay: Hemogram of blood of patients with AML after exposure (Example 12, Table 9); type: cell-based
Procedure: as §4, §5, §6

[3] = tested on: blood of patients with AML; assay: Hemogram of blood of patients with AML after exposure (Example 13, Table 10; also OMML); type: cell-based
Procedure: as §4, §5, §6

[4] = tested on: blood of patients with T-ALL; assay: Hemogram of blood of patients with T-ALL after exposure; type: cell-based
Text: as §3, §4, §5, §6

[5] = tested on: blood of patients with B-ALL; assay: Hemogram of blood of patients with B-ALL after exposure; type: cell-based
Procedure: A total of 798 blood samples from patients with leukemia were examined.
as §4, §5, §6

[6] = tested on: CCRF-CEM (CCL-119) (T-lymphoblastic leukemia); assay: MTT cytotoxicity on CCRF-CEM cells; type: cell-based; details: Homo sapiens, 24 hours
Procedure: as §1

[7] = tested on: blood of patients with AML; assay: Hemogram of blood of patients with AML after exposure (Example 14, Table 11); type: cell-based; details: AML (Table 11); 10 µg/ml; 3 hours, 37.0°C
Text: as §3, §4, §5, §6

[8] = tested on: blood of patients with ALL; assay: Hemogram of blood of patients with ALL after exposure; type: cell-based
Procedure: as §3, §5, §6

outbred white mice = assay: Acute toxicity study (LD50)
Procedure: (§2) We studied the acute toxicity of compound F1 in vivo. The experiments were carried out on outbred white mice of both sexes weighing 18-20 g (24 pcs.). The animals were divided into groups of 12 mice each. The compound was dissolved in DMSO and then adjusted to the desired concentration with 0.9% NaCl solution and administered intraperitoneally and subcutaneously in a dose range from 5.0 to 200.0 mg/kg. […] The maximum relative error of the applied dose was no more than 5%.
as §2, with “F2” for “F1”, “brought” for “adjusted”, “subcutaneously to animals” for “subcutaneously”, “administered” for “applied”

[9] = Acute toxicity study (LD50); details: mouse, in vivo, ip
Procedure: as §2
as §2, with “F2” for “F1”, “brought” for “adjusted”, “subcutaneously to animals” for “subcutaneously”, “administered” for “applied”

lung cancer H460 = details: cited from earlier work
[10] = AML (Table 9), 10 µg/ml, 3 hours, 37.0°C
[11] = AML (Example 13), compared with doxorubicin
[12] = AML (Table 10), 10 µg/ml, 3 hours, 37.0°C

In the case of `CS(=O)(=O)N1CCC(Nc2n[nH]c3c2nc(-c2c(F)cccc2F)c2cc(C(N)=O)ccc23)CC1` [5-(2,6-difluorophenyl)-3-{[1-(methylsulfonyl)piperidin-4-yl]amino}-1H-pyrazolo[4,3-c]isoquinoline-7-carboxamide], the EC50 (cervical carcinoma cells) is listed as 259 nM.

For `COc1cc2c(cc1OC)C(c1cc3c(cc1Cl)OCO3)NCC2` (stereo not shown) [Compound F2, 1-(2'-chloro-4',5'-methylenedioxyphenyl)-6,7-dimethoxy-1,2,3,4-tetrahydroisoquinoline], the “Band (s/n) neutrophils” value ([1]; 10 µg/ml, 3 hours, 37.0°C) was 1,6±0,2 %, the Blasts ([1]; 10 µg/ml, 3 hours, 37.0°C) was 65,2±2,8 % and the Destroyed cells ([1]; 10 µg/ml, 3 hours, 37.0°C) was 12,9±1,8 %. The Eosinophils ([1]; 10 µg/ml, 3 hours, 37.0°C) was 1,6±0,3 %, the Lymphocytes ([1]; 10 µg/ml, 3 hours, 37.0°C) was 12,3±1,2% and the Monocytes ([1]; 10 µg/ml, 3 hours, 37.0°C) was 4,7±0,7 %. The Myelocytes ([1]; 10 µg/ml, 3 hours, 37.0°C) was 2,5±0,6 %, the Promyelocytes ([1]; 10 µg/ml, 3 hours, 37.0°C) was 3,8±2,1% and the “Segmented (s/i) neutrophils” value ([1]; 10 µg/ml, 3 hours, 37.0°C) was 5,5±0,9%. For the same compound, the “increase in the level of destroyed cells” value ([1]; compared to the control group) was 2.3 fold, the “decrease in the content of blasts” value ([1]; versus Control group) was 14.6% and the IC50 (fibroblasts) was over 100 µM. The IC50 (Rat liver hepatocytes) was over 100 µM, the “decrease in the percentage of blasts” value ([2]; AML (Example 12)) was 1.2 times and the “increase in the level of destroyed cells” value ([2]; AML (Example 12)) was 4.0 times. For the same compound, the “increase in the proportion of mature differentiated neutrophils” value ([2]; AML (Example 12)) was 2.0 times, the “Band (s/n) neutrophils” value [2, 10] was 0,9±0,4% and the Blasts [2, 10] was 65,6±2,4 %. For the same compound, the Destroyed cells [2, 10] was 8,2±1,1%, the Eosinophils [2, 10] was 0,8±0,5% and the Lymphocytes [2, 10] was 11,5±1,8%. For the same compound, the Monocytes [2, 10] was 4,4±0,9%, the Myelocytes [2, 10] was 1,3±0,7% and the Promyelocytes [2, 10] was 0,4±0,2%. The “Segmented (s/i) neutrophils” value [2, 10] was 7,0±1,1 %, the “decrease in the percentage of myelocytes” value ([3]; AML (Example 13)) was 2.1 times and the “decrease in the proportion of blasts” value ([3]; AML (Example 13)) was 11.7%. For the same compound, the “increase in the proportion of destroyed cells” value ([3]; AML (Example 13)) was 2.6 times, the “increase in the proportion of neutrophils” value ([3]; AML (Example 13)) was 2.3 times and the “proportion of destroyed cells higher” value ([3]; AML (Example 13), compared with Cytosar) was 2.1 times. The “percentage of lymphocytes lower” value [3, 11] was 1.9 times, the “percentage of neutrophils lower” value [3, 11] was 1.7 times and the “percentage of myelocytes lower” value ([3]; AML (Example 13), relative to cytosar) was 5.0 times. For the same compound, the “Band (s/n) neutrophils” value [3, 12] was 2,9±0,4%, the Blasts [3, 12] was 51,9±2,2% and the Destroyed cells [3, 12] was 16,6±1,6*^ %. The Eosinophils [3, 12] was 0,5±0,2%, the Lymphocytes [3, 12] was 3,2±0,8 % and the Monocytes [3, 12] was 3,2±0,4 %. The Myelocytes [3, 12] was 3,2±0,5 %, the Promyelocytes [3, 12] was 0,0±0,0% and the “Segmented (s/i) neutrophils” value [3, 12] was 18,6±1,7 %. For the same compound, the “Band (s/n) neutrophils” value ([4]; 10 µg/ml, 3 hours, 37.0°C) was 0,8±0,2%, the Blasts ([4]; 10 µg/ml, 3 hours, 37.0°C) was 68,2±2,2 % and the Destroyed cells ([4]; 10 µg/ml, 3 hours, 37.0°C) was 16,1±1,3 A %. For the same compound, the Eosinophils ([4]; 10 µg/ml, 3 hours, 37.0°C) was 0,0±0,0%, the Lymphocytes ([4]; 10 µg/ml, 3 hours, 37.0°C) was 6,7±0,6*^ # % and the Monocytes ([4]; 10 µg/ml, 3 hours, 37.0°C) was 1,2±0,2*^ %. The Myelocytes ([4]; 10 µg/ml, 3 hours, 37.0°C) was 0,0±0,0%, the Promyelocytes ([4]; 10 µg/ml, 3 hours, 37.0°C) was 0,0±0,000% and the “Segmented (s/i) neutrophils” value ([4]; 10 µg/ml, 3 hours, 37.0°C) was 7,0±1,0*^ %. The “increase in the percentage of destroyed cells” value ([4]; comparator not stated) was 1.8 times, the decrease in lymphocytes ([4]; compared with doxorubicin) was 1.7 times and the decrease in monocytes ([4]; compared with doxorubicin) was 1.9 times. For the same compound, the “increase in the proportion of mature and differentiated neutrophils” value ([4]; comparison with the cytosar group) was 2.3 times, the “decrease in the content of blasts” value [5] was 1.27 times and the “increase in the proportion of destroyed cells” value [5] was 4.9 times. The “Band (s/n) neutrophils” value ([5]; 10 µg/ml, 3 hours, 37.0°C) was 1,7±0,4%, the Blasts ([5]; 10 µg/ml, 3 hours, 37.0°C) was 53,9±2,6 % and the Destroyed cells ([5]; 10 µg/ml, 3 hours, 37.0°C) was 15,2±1,8*^ %. For the same compound, the Eosinophils ([5]; 10 µg/ml, 3 hours, 37.0°C) was 0,0±0,0%, the Lymphocytes ([5]; 10 µg/ml, 3 hours, 37.0°C) was 14,6±2,0% and the Monocytes ([5]; 10 µg/ml, 3 hours, 37.0°C) was 2,8±0,9%. The Myelocytes ([5]; 10 µg/ml, 3 hours, 37.0°C) was 0,8±0,2%, the Promyelocytes ([5]; 10 µg/ml, 3 hours, 37.0°C) was 0,0±0,0% and the “Segmented (s/i) neutrophils” value ([5]; 10 µg/ml, 3 hours, 37.0°C) was 11,1±2,0 %. The IC50 [6] was 21 µM, the “Band (s/n) neutrophils” value [7] was 1,2±0,3% and the Blasts [7] was 59,1±3,3 %. For the same compound, the Destroyed cells [7] was 19,3±1,7 %, the Eosinophils [7] was 0,5±0,2% and the Lymphocytes [7] was 8,2±1,1%. The Monocytes [7] was 1,8±0,3%, the Myelocytes [7] was 0,4±0,1% and the Promyelocytes [7] was 0,0±0,0%. For the same compound, the “Segmented (s/i) neutrophils” value [7] was 9,6±2,5%, the “Band (s/n) neutrophils” value ([8]; 10 µg/ml, 3 hours, 37.0°C) was 0,7±0,2% and the Blasts ([8]; 10 µg/ml, 3 hours, 37.0°C) was 67,9±1,6*^ %. For the same compound, the Destroyed cells ([8]; 10 µg/ml, 3 hours, 37.0°C) was 13,2±1,4*^ # %, the Eosinophils ([8]; 10 µg/ml, 3 hours, 37.0°C) was 0,2±0,1% and the Lymphocytes ([8]; 10 µg/ml, 3 hours, 37.0°C) was 13,4±1,3%. The Monocytes ([8]; 10 µg/ml, 3 hours, 37.0°C) was 1,1±0,3%, the Myelocytes ([8]; 10 µg/ml, 3 hours, 37.0°C) was 0,0±0,0% and the Promyelocytes ([8]; 10 µg/ml, 3 hours, 37.0°C) was 0,0±0,0%. The “Segmented (s/i) neutrophils” value ([8]; 10 µg/ml, 3 hours, 37.0°C) was 3,7±0,7 %, the “percentage of destroyed cells higher” value ([8]; compared to cytosar) was 2.8 times and the “difference in the level of blast cells” value ([8]; compared with cytosar) was 1.16 times. The “increase in the proportion of destroyed cells” value ([8]; in comparison with doxorubicin) was 2.75 times, the toxicity class (outbred white mice; classified from LD50) was “toxicity class 3 (moderately toxic)” and the “LD50 value, times higher than cytosar (cytarabine)” value (outbred white mice; relative to cytosar) was 52 times. The “LD50 value, times higher than doxorubicin” value (outbred white mice; relative to doxorubicin) was 20 times and the LD50 at 168 h [9] was 220 ± 15.6 mg/kg.

In the case of `C/C=C(/C)C(=O)OC[C@H]1C2=C(C[C@H]3[C@H]4C5=C(C[C@@H]([C@H](C#N)N13)N4C)C(=O)C(C)=C(OC)C5=O)C(=O)C(C)=C(OC)C2=O` [renieramycin M], the IC50 (lung cancer H460) is listed as 40 µM.
